This note sets out measurements from paper PMC12084349 (Communications Biology, 2025).

Assay [1] deals with Aha1 (Homo sapiens, UniProt O95433). Nature of the assay: ITC. The assay is classed as binding.
The target of assay [2] is Hsp90-NTD (Homo sapiens, UniProt P07900). As to the kind of experiment: [1H, […]] HSQC NMR titration. The assay is classed as binding.

Chain of Aha1 (O95433 204-338): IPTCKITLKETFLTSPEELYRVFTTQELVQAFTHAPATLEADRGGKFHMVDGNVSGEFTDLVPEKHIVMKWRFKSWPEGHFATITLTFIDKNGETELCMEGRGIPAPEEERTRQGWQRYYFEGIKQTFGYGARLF

Broadly, the Kd is the equilibrium constant for the complex coming apart. Lower therefore signals a tighter complex. For the compound `CCc1oc2ccccc2c1C(=O)c1cc(Br)c(O)c(Br)c1` [Benzbromarone], the Kd was 0.84 ± 0.35 µM in assay [1] and 15.1 ± 3.86 µM in assay [2].
